Experimental data: the NIST ThermoML archive (doi:10.1016/j.jct.2015.05.024)
± gives the expanded uncertainty stated by the source.

Test: xn = mol fraction of the nth substance listed
Conditions: 100 kPa, Liquid; for mass density: Vibrating tube method; for speed of sound: Frequency=5 MHz, Pulse-echo method

OCCOCCOCCO [triethylene glycol] + O
Conditions	mass density [kg/m3]	speed of sound [m/s]
303.15 K, x1 = 0.04979	1041.3 ± 0.17	–
303.15 K, x1 = 0.06996	1054 ± 0.16	–
303.15 K, x1 = 0.09424	1066.08 ± 0.14	–
303.15 K, x1 = 0.1481	1084.03 ± 0.14	–
303.15 K, x1 = 0.2006	1094.18 ± 0.14	–
303.15 K, x1 = 0.2502	1100.12 ± 0.14	–
303.15 K, x1 = 0.2988	1103.95 ± 0.15	–
303.15 K, x1 = 0.3492	1106.7 ± 0.15	–
303.15 K, x1 = 0.3925	1108.43 ± 0.16	–
303.15 K, x1 = 0.4502	1110.16 ± 0.17	–
303.15 K, x1 = 0.4877	1111.03 ± 0.18	–
303.15 K, x1 = 0.5004	1111.29 ± 0.18	–
303.15 K, x1 = 0.5739	1112.54 ± 0.19	–
303.15 K, x1 = 0.58	1112.63 ± 0.2	–
303.15 K, x1 = 0.6465	1113.45 ± 0.21	–
303.15 K, x1 = 0.651	1113.5 ± 0.21	–
303.15 K, x1 = 0.7008	1113.98 ± 0.22	–
303.15 K, x1 = 0.7471	1114.36 ± 0.23	–
303.15 K, x1 = 0.7677	1114.51 ± 0.24	–
303.15 K, x1 = 0.82	1114.86 ± 0.26	–
303.15 K, x1 = 0.8623	1115.11 ± 0.27	–
303.15 K, x1 = 0.8792	1115.2 ± 0.28	–
303.15 K, x1 = 0.8975	1115.3 ± 0.28	–
303.15 K, x1 = 0.9203	1115.41 ± 0.29	–
303.15 K, x1 = 0.9514	1115.57 ± 0.3	–
303.15 K, x1 = 0.9692	1115.66 ± 0.31	–
303.15 K, x1 = 1	1115.81 ± 0.32	–
308.15 K, x1 = 0.000704	–	1522.8 ± 1.2
308.15 K, x1 = 0.002176	–	1528.1 ± 1.2
308.15 K, x1 = 0.005721	–	1540.6 ± 1.2
308.15 K, x1 = 0.01035	–	1556 ± 1.2
308.15 K, x1 = 0.0107	1005.7 ± 0.23	–
308.15 K, x1 = 0.01513	–	1570.7 ± 1.2
308.15 K, x1 = 0.02047	1015.27 ± 0.21	–
308.15 K, x1 = 0.02389	–	1595 ± 1.1
308.15 K, x1 = 0.03177	–	1614.1 ± 1.1
308.15 K, x1 = 0.03972	1031.49 ± 0.2	–
308.15 K, x1 = 0.0428	–	1637 ± 1.1
308.15 K, x1 = 0.04979	1038.74 ± 0.17	–
308.15 K, x1 = 0.05056	–	1650.6 ± 1.1
308.15 K, x1 = 0.05793	–	1661.8 ± 1.1
308.15 K, x1 = 0.06447	–	1670.6 ± 1.1
308.15 K, x1 = 0.06996	1051.15 ± 0.16	–
308.15 K, x1 = 0.07343	–	1680.8 ± 1.1
308.15 K, x1 = 0.08342	–	1690 ± 1.1
308.15 K, x1 = 0.09076	–	1695.5 ± 1.1
308.15 K, x1 = 0.09424	1062.94 ± 0.14	–
308.15 K, x1 = 0.1028	–	1702.6 ± 1.1
308.15 K, x1 = 0.1137	–	1707.1 ± 1.1
308.15 K, x1 = 0.1189	–	1708.7 ± 1.1
308.15 K, x1 = 0.1229	–	1709.7 ± 1.1
308.15 K, x1 = 0.1231	–	1709.7 ± 1.1
308.15 K, x1 = 0.1269	–	1710.5 ± 1.1
308.15 K, x1 = 0.1308	–	1711.1 ± 1.1
308.15 K, x1 = 0.1403	–	1712.1 ± 1.1
308.15 K, x1 = 0.1427	–	1712.2 ± 1.1
308.15 K, x1 = 0.1481	1080.5 ± 0.14	1712.3 ± 1.1
308.15 K, x1 = 0.1594	–	1711.9 ± 1.1
308.15 K, x1 = 0.1659	–	1711.3 ± 1.1
308.15 K, x1 = 0.1738	–	1710.3 ± 1.1
308.15 K, x1 = 0.1858	–	1708.3 ± 1.1
308.15 K, x1 = 0.1969	–	1706 ± 1.1
308.15 K, x1 = 0.2006	1090.47 ± 0.14	–
308.15 K, x1 = 0.2172	–	1701 ± 1.1
308.15 K, x1 = 0.2467	–	1692.8 ± 1.1
308.15 K, x1 = 0.2502	1096.32 ± 0.14	–
308.15 K, x1 = 0.2825	–	1682.6 ± 1.1
308.15 K, x1 = 0.2988	1100.12 ± 0.15	–
308.15 K, x1 = 0.3259	–	1670.8 ± 1.1
308.15 K, x1 = 0.3492	1102.85 ± 0.15	–
308.15 K, x1 = 0.3691	–	1660.3 ± 1.1
308.15 K, x1 = 0.3925	1104.57 ± 0.16	–
308.15 K, x1 = 0.4352	–	1646.2 ± 1.2
308.15 K, x1 = 0.4502	1106.3 ± 0.17	–
308.15 K, x1 = 0.4877	1107.17 ± 0.17	–
308.15 K, x1 = 0.5004	1107.43 ± 0.18	–
308.15 K, x1 = 0.5067	–	1632.7 ± 1.2
308.15 K, x1 = 0.5739	1108.68 ± 0.19	–
308.15 K, x1 = 0.58	1108.77 ± 0.19	–
308.15 K, x1 = 0.6111	–	1615.9 ± 1.2
308.15 K, x1 = 0.6465	1109.59 ± 0.21	–
308.15 K, x1 = 0.651	1109.63 ± 0.21	–
308.15 K, x1 = 0.7008	1110.12 ± 0.22	–
308.15 K, x1 = 0.7471	1110.49 ± 0.23	–
308.15 K, x1 = 0.7677	1110.64 ± 0.24	–
308.15 K, x1 = 0.7783	–	1598.5 ± 1.3
308.15 K, x1 = 0.82	1110.99 ± 0.25	–
308.15 K, x1 = 0.8623	1111.23 ± 0.27	–
308.15 K, x1 = 0.8792	1111.32 ± 0.27	–
308.15 K, x1 = 0.8912	–	1591.9 ± 1.4
308.15 K, x1 = 0.8975	1111.42 ± 0.28	–
308.15 K, x1 = 0.9203	1111.54 ± 0.29	–
308.15 K, x1 = 0.9514	1111.69 ± 0.3	–
308.15 K, x1 = 0.9608	–	1587.5 ± 1.4
308.15 K, x1 = 0.9692	1111.78 ± 0.31	–
308.15 K, x1 = 1	1111.92 ± 0.32	1584.6 ± 1.4
313.15 K, x1 = 0.00059	–	1530.8 ± 1.2
313.15 K, x1 = 0.002696	–	1537.9 ± 1.2
313.15 K, x1 = 0.006871	–	1551.2 ± 1.2
313.15 K, x1 = 0.01006	–	1560.8 ± 1.2
313.15 K, x1 = 0.0107	1003.69 ± 0.23	–
313.15 K, x1 = 0.01494	–	1574.7 ± 1.1
313.15 K, x1 = 0.02047	1013.09 ± 0.2	–
313.15 K, x1 = 0.02274	–	1594.6 ± 1.1
313.15 K, x1 = 0.02979	–	1610.7 ± 1.1
313.15 K, x1 = 0.03584	–	1623 ± 1.1
313.15 K, x1 = 0.03972	1028.97 ± 0.19	–
313.15 K, x1 = 0.04219	–	1634.6 ± 1.1
313.15 K, x1 = 0.04979	1036.07 ± 0.17	–
313.15 K, x1 = 0.05045	–	1647.8 ± 1.1
313.15 K, x1 = 0.05689	–	1656.8 ± 1.1
313.15 K, x1 = 0.06687	–	1668.7 ± 1.1
313.15 K, x1 = 0.06996	1048.19 ± 0.16	–
313.15 K, x1 = 0.07692	–	1678.3 ± 1.1
313.15 K, x1 = 0.08288	–	1683 ± 1.1
313.15 K, x1 = 0.09135	–	1688.6 ± 1.1
313.15 K, x1 = 0.09262	–	1689.3 ± 1.1
313.15 K, x1 = 0.09424	1059.72 ± 0.14	–
313.15 K, x1 = 0.1004	–	1693.3 ± 1.1
313.15 K, x1 = 0.1079	–	1696.2 ± 1.1
313.15 K, x1 = 0.116	–	1698.7 ± 1.1
313.15 K, x1 = 0.1201	–	1699.6 ± 1.1
313.15 K, x1 = 0.1232	–	1700.2 ± 1.1
313.15 K, x1 = 0.1303	–	1701.1 ± 1.1
313.15 K, x1 = 0.1343	–	1701.5 ± 1.1
313.15 K, x1 = 0.1377	–	1701.6 ± 1.1
313.15 K, x1 = 0.1423	–	1701.7 ± 1.1
313.15 K, x1 = 0.1481	1076.91 ± 0.14	–
313.15 K, x1 = 0.1573	–	1701 ± 1.1
313.15 K, x1 = 0.1723	–	1699 ± 1.1
313.15 K, x1 = 0.1866	–	1696.2 ± 1.1
313.15 K, x1 = 0.2006	1086.71 ± 0.14	–
313.15 K, x1 = 0.2037	–	1692.2 ± 1.1
313.15 K, x1 = 0.2426	–	1681.2 ± 1.1
313.15 K, x1 = 0.2502	1092.5 ± 0.14	–
313.15 K, x1 = 0.2794	–	1670.3 ± 1.1
313.15 K, x1 = 0.2988	1096.26 ± 0.15	–
313.15 K, x1 = 0.3209	–	1658.6 ± 1.1
313.15 K, x1 = 0.3492	1098.98 ± 0.15	–
313.15 K, x1 = 0.3925	1100.7 ± 0.16	–
313.15 K, x1 = 0.403	–	1638.8 ± 1.1
313.15 K, x1 = 0.4502	1102.42 ± 0.17	–
313.15 K, x1 = 0.4658	–	1626 ± 1.2
313.15 K, x1 = 0.4877	1103.29 ± 0.17	–
313.15 K, x1 = 0.5004	1103.55 ± 0.18	–
313.15 K, x1 = 0.5676	–	1608 ± 1.2
313.15 K, x1 = 0.5739	1104.8 ± 0.19	–
313.15 K, x1 = 0.58	1104.89 ± 0.19	–
313.15 K, x1 = 0.6465	1105.71 ± 0.2	–
313.15 K, x1 = 0.651	1105.76 ± 0.21	–
313.15 K, x1 = 0.6969	–	1590.8 ± 1.3
313.15 K, x1 = 0.7008	1106.24 ± 0.22	–
313.15 K, x1 = 0.7471	1106.61 ± 0.23	–
313.15 K, x1 = 0.7677	1106.76 ± 0.23	–
313.15 K, x1 = 0.82	1107.11 ± 0.25	–
313.15 K, x1 = 0.8623	1107.35 ± 0.27	–
313.15 K, x1 = 0.8694	–	1577.9 ± 1.3
313.15 K, x1 = 0.8792	1107.44 ± 0.27	–
313.15 K, x1 = 0.9455	–	1572.9 ± 1.4
313.15 K, x1 = 1	–	1569.1 ± 1.4
